Measurements published in patent US10898570B2, “Combination therapy with an anti-HER2 antibody-drug conjugate and a Bcl-2 inhibitor” (Genentech, Inc., priority 2015, dated 2021).

Tests used:
[1] = test system: Clone #17 T-DM1 resistant KPL-4 human breast cancer xenografts; assay: xenograft study, tumor volume; format: in vivo, SCID beige mice
From the text: For all xenograft studies, three million T-DM1-resistant KPL-4 breast cancer cells were implanted in #2/3 mammary fat pads of female SCID-beige mice. […] The results of these xenograft studies for xenografts of various clones of the T-DM1-resistant KPL-4 breast cancer cells are shown in FIGS. 5B and 6C.

[2] = cited from earlier work
KPL-4 parental cells = assay: caspase 3/7 activation luminescence assay (Caspase-Glo); format: cell-based, human
Procedure: (§1) In the present experiment, caspase 3/7 activation luminescence assay was performed using the Caspase-Glo® reagent (Promega) essentially following manufacturer's instructions. […]

[3] = test system: T-DM1-resistant KPL-4 (HER2+) breast cancer cells; assay: as above; format: cell-based, human; settings: 48 hours; T-DM1 0.1 or 1 μg/mL; GDC-0199 1, 2.5 or 5 μM
Procedure: as §1

[4] = test system: Clone #17 T-DM1 resistant KPL-4 human breast cancer cell line; assay: as above; format: cell-based; settings: 48 hours; 1 ug/mL T-DM1 alone or with indicated doses of GDC-0199
Procedure: as §1

[5] = test system: HER2+ HCC1569 breast cancer cells (T-DM1 naive); assay: caspase 3/7 activation luminescent in vitro apoptosis assay; format: cell-based; settings: 24 hours; five concentrations of GDC-0199, 9 concentrations of T-DM1
Procedure: (§2) In the present experiment, caspase 3/7 activation luminescence assay was performed using the Caspase-Glo® reagent (Promega) essentially following manufacturer's instructions. Assays were performed in the same manner as the viability assays except that drug incubation times were 24 hours and Caspase-Glo 3/7 (Promega) was used to measure apoptosis.
(§3) Caspase 3/7 activation luminescence assay was performed as described in Example 3.

[6] = test system: HER2+ MDA-MB-361 breast cancer cells (T-DM1 naive); assay: as above; format: cell-based; settings: 24 hours; five concentrations of GDC-0199, 9 concentrations of T-DM1
Procedure: as §2, §3

Bcl-2 = settings: T-DM1 1.25 μg/mL; cell lines BT-474, MDA_361 and ZR-75-30
Procedure: Western blot analysis was performed as follows: Cells were lysed in corrected FLAG elution buffer (CFEB) (19.17 mM Tris (pH 7.5), 916.7 μM MgCl2, 92.5 mM NaCl and 0.1% Triton X-100) with protease and phosphatase inhibitors (Roche); in some cases 6 M urea was added. Cleared lysates were quantitated and equal amounts of proteins were reduced, alkylated, separated by SDS-PAGE, and transferred onto PVDF membranes (Invitrogen) following standard procedures. Western blotting was performed as recommended by the respective antibody manufacturers.
The effect of treatment with T-DM1 (1.25 μg/mL) alone or in combination with GDC-0199 (1.25 μM) was studied on various T-DM1 naïve HER2+ breast cancer cell lines.

[7] = weekly dosing with 2.4 mg/kg; cited from earlier work

CC1(C)CCC(CN2CCN(c3ccc(C(=O)NS(=O)(=O)c4ccc(NCC5CCOCC5)c([N+](=O)[O-])c4)c(Oc4cnc5[nH]ccc5c4)c3)CC2)=C(c2ccc(Cl)cc2)C1 [GDC-0199, 2-(1H-pyrrolo[2,3-b]pyridin-5-yloxy)-4-(4-((2-(4-chlorophenyl)-4,4-dimethylcyclohex-1-enyl)methyl)piperazin-1-yl)-N-(3-nitro-4-((tetrahydro-2H-pyran-4-yl)methylamino)phenylsulfonyl)benzamide]
tumor growth (tumor volume) ([1]; 100 mg/kg): no activity

COc1cc2cc(c1Cl)N(C)C(=O)C[C@H](OC(=O)[C@H](C)N(C)C(C)=O)[C@]1(C)O[C@H]1[C@H](C)[C@@H]1C[C@@](O)(NC(=O)O1)[C@H](OC)/C=C/C=C(\C)C2 [maytansine]
dose-limiting toxicity (DLT) ([2]; 2.0 mg/m2 every 3 weeks, single dose or 3 consecutive days): gastrointestinal | activity in the clinic ([2]; at doses that could be safely delivered): modest

trastuzumab-MCC-DM1 [T-DM1]
activation of caspases 3 and 7 (apoptosis) (KPL-4 parental cells; 24 hours of drug treatment): no effect | activation of caspases 3 and 7 (apoptosis) (KPL-4 parental cells; 48 hours, T-DM1 0.1 or 1 μg/mL, GDC-0199 1, 2.5 or 5 μM): robust activation | activation of caspases 3 and 7 (apoptosis) [3]: minimal effect | activation of caspases 3 and 7 (apoptosis) [4]: minimal effect | tumor growth (tumor volume) ([1]; T-DM1 5 mg/kg administered once, GDC-0199 100 mg/kg qd×21): no activity | caspase 3/7 activity (apoptosis) [5]: does not induce apoptosis | caspase 3/7 activity (apoptosis) [6]: caspases 3 and 7 activation | phosphorylation of Bcl-2 after treatment (Western blot) (Bcl-2): phosphorylation of Bcl-2 | anti-tumor activity [7]: anti-tumor activity
